Assay results published in PMC10895678 (Journal of Medicinal Chemistry, 2024).
≈ marks a conversion by molar mass, not a printed value. Where “and” joins values, the source holds several entries; their conditions need not be identical. Equal values may be shown once. Read-outs that look alike come from different tables or passages of the source.

How the values were obtained:
[1] = system: M. smegmatis; assay: MIC determination, resazurin end point assay, M. smegmatis; format: cell-based, Mycobacterium smegmatis; settings: Mycolicibacterium smegmatis
[2] = system: M. bovis BCG; assay: microbe, parasite or virus in culture; format: cell-based; settings: Mycobacterium tuberculosis variant bovis BCG, read-out: BCG MBC
[3] = Kinetic solubility (turbidimetry); format: physicochemical; settings: PBS pH 7.4, 1% DMSO, 25 °C
[4] = Mouse PK, combined (cassette) dosing of BGAz-001–005; format: in vivo, KM mice; parameters: AUMC(0-t) / VRT(0-t) / λz: unit not given here; settings: for AUC(0-t): read-out: AUC(0-t); for MRT last: read-out: MRT(0-t); for MRT inf: read-out: MRT(0-∞); for Vd/F: read-out: Vz/F
Text: Methods for combined single dosing (BGAz001–005) and dosing of single compounds multiple times (BGAz004 and BGAz005) are described in detail in the Supporting Information (PK Data).
Report on PK Results of Combined Dosing with BGAz-001–005
1 Materials and instrument combined dosing
An MS2 Turnover type oscillator was purchased from IKA Work’s Guangzhou (China), and a 5415R ChromatographicanalyseswereconductedusinganAgilent1290InfinityIIhighperformanceliquidchromatography andAgilentTechnologies6470TripleQuadLC/MS.Propranolol(≥90%inpurity,internalstandard,IS)waspurchased fromtheSigmaChemicalCo.(China).Formicacid(HPLCgrade)andmethanol(HPLCgrade)werepurchasedfrom DIKMACo.(China).Allchemicalsandsolventswereanalyticalgrade.WaterwaspurifiedusingaMillipore(AK,USA) laboratoryultra-purewatersystem(0.2μmfilter).
KMmice,weighing25–35g(BeijingVitalRiverLaboratoryAnimalTechnologyCo.,Ltd.,China)wereutilisedforthe studies.The protocols were approved by the Animal Care and Use Committee, GIBH. Animals were maintained on standard animal chow and waterad libitum, in a climate-controlled room (23±1 °C 30–70% relative humidity, a minimumof tenexchangesof roomairperhouranda12hlight/darkcycle)foroneweekpriortoexperiments.
3 Pharmacokinetic studies
Compounds BGAz-001 ，BGAz-002 ，BGAz-003 ，BGAz-004 and BGAz-005 were dissolved mixed in a solution containing DMSO (2%),ethanol (4%), Cremophor EL (4%) and ddH2O (90%); Pharmacokinetic propertiesof KM (male) were determined following IV, PO and IP administration. Animals were randomly distributed into three experimentalgroups(n=4).ThePOgroupwasgivenmixedsolutionwith5mg/kgbygastricgavage.TheIVgroup was dosed with mixed solution 1mg/kg byinjection into the tail vein. The IP group was dosed with mixed solution 1mg/kg by intraperitoneal injection. After single administration, whole blood samples (100 μL) were obtained from the orbital venousplexus atthe followingtime pointsafter dosing:5, 15,30 minand 1,3, 5,8, 24hour (PO and IP groups) and at the following time points after dosing 2, 10, 30min and 1, 3, 5, 8,24 hour (IV group). Wholeblood samples were collected in heparinised tubes. The plasma fraction was immediately separated by centrifugation. The micewerehumanelyeuthanasiabycarbondioxide24hoursafterexperimentwithoutpain.
4 Plasma sample and brain sample analysis
4.1 Standard curve sample preparation
ThecompoundsweredissolvedinDMSO(2mg/mL)anddilutedwithtoseriesconcentration(methanol:H 2O,1:1,10 μL) and blank plasma (50 μL) were added to 1.5 mL tubes and vortexed for 3 min, then acetonitrile-containing internalstandard(150μL)wasaddedandvortexedforafurther5min,andsubsequentlyspuninacentrifugeat13000 […]
4.2 Plasma and preparation
Plasmasampleswerepreparedusingaproteinprecipitationmethod.Solution(10μL,methanolH 2O,1:1)andplasma samples(50μL)wereaddedto1.5mLtubesandvortexfor3min,thenacetonitrile-containinginternalstandard(150 μL)wasaddedandvortexfor5min,andsubsequentlyspuninacentrifugeat13000× gfor40minat4°C.
Aftercentrifugation,supernatant(100μL)wastransferto96wellplatesandanalysedbyLC-MS/MSusinganAgilent 1290InfinityIIHPLCandanAgilentTechnologies6470TripleQuadLC/MS.

[5] = system: C. glutamicum; assay: MIC, resazurin assay, C. glutamicum wild type; format: cell-based, Corynebacterium glutamicum; settings: modified Gompertz function
[6] = IP 1 mg/kg, cassette, mean of animals
[7] = IV 1 mg/kg, cassette, mean of animals
[8] = PO 5 mg/kg, cassette, mean of animals
[9] = male, KM, mouse, plasma, IP 1 mg/kg, cassette
[10] = male, KM, mouse, plasma, IP 1 mg/kg, cassette, mean of animals
[11] = male, KM, mouse, plasma, IV 1 mg/kg, cassette
[12] = male, KM, mouse, plasma, IV 1 mg/kg, cassette, mean of animals
[13] = male, KM, mouse, plasma, PO 5 mg/kg, cassette
[14] = male, KM, mouse, plasma, PO 5 mg/kg, cassette, mean of animals

Compound: CNCC1CC(c2ccc(OC(F)(F)F)cc2)N1Cc1ccccc1OC(F)(F)F (stereo not drawn) [BGAz-005]
- MIC99 ([1]; resazurin end point assay, modified Gompertz function, three biological replicates, read-out: M. smeg. MIC99): 24 µM (≈ 10.4 µg/mL)
- MIC50 ([1]; supplementary MIC data file, read-out: MIC50 smegmatis): 9 µM (≈ 3.91 µg/mL)
- MIC99 ([1]; supplementary MIC data file, read-out: MIC99 smegmatis): 24 µM (≈ 10.4 µg/mL)
- MBC [2]: 12 to 25 µM (≈ 5.21 to 10.9 µg/mL)
- solubility kinetic at 5 min [3]: 117 µM (≈ 50.8 µg/mL)
- AUMC(0-t) [4, 6]: 2746.024 **μg
- AUMC(0-∞) [4, 6]: 5711.413 **μg
- CLz/F [4, 6]: 2.157 L/kg
- C_last [4, 6]: 5.459 µg
- R_AUC(t/∞) [4, 6]: 83.575%
- VRT(0-t) [4, 6]: 43.817 ^2
- VRT(0-∞) [4, 6]: 202.71 ^2
- λz [4, 6]: 0.079 1/
- AUC(0-∞) ([4]; IP 1 mg/kg, cassette, summary table): 464.151 µg·h
- AUMC(0-t) [4, 7]: 2221.012 **μg
- AUMC(0-∞) [4, 7]: 3469.367 **μg
- CLz/F [4, 7]: 2.386 L/kg
- C_last [4, 7]: 2.531 µg
- R_AUC(t/∞) [4, 7]: 91.7%
- VRT(0-t) [4, 7]: 45.323 ^2
- VRT(0-∞) [4, 7]: 139.16 ^2
- Vz/F [4, 7]: 28.599 L/kg
- λz [4, 7]: 0.098 1/
- AUC(0-∞) ([4]; IV 1 mg/kg, cassette, summary table): 424.729 µg·h
- BA ([4]; PO 5 mg/kg vs IV 1 mg/kg, cassette): 72.63%
- AUMC(0-t) [4, 8]: 6391.819 **μg
- AUMC(0-∞) [4, 8]: 80528.925 **μg
- CLz/F [4, 8]: 14.928 L/kg
- C_last [4, 8]: 18.45 µg
- R_AUC(t/∞) [4, 8]: 55.825%
- VRT(0-t) [4, 8]: 47.178 ^2
- VRT(0-∞) [4, 8]: 2247.307 ^2
- λz [4, 8]: 0.017 1/
- AUC(0-∞) ([4]; PO 5 mg/kg, cassette, summary table): 1542.381 µg·h
- AUC(0-inf) ([4]; male, KM, mouse, plasma, ip, 1 mg/kg, IP 1 mg/kg, cassette, mean of animals, read-out: AUC(0-∞)): 464 ng·h/mL
- Cmax ([4]; male, KM, mouse, plasma, ip, 1 mg/kg, IP 1 mg/kg, cassette, mean of animals, read-out: Cmax): 41.9 ng/mL
- Tmax ([4]; male, KM, mouse, plasma, ip, 1 mg/kg, IP 1 mg/kg, cassette, mean of animals, read-out: Tmax): 0.646 h
- Cmax ([4]; male, KM, mouse, plasma, ip, 1 mg/kg, IP 1 mg/kg, cassette, summary table, read-out: Cmax): 41.9 ng/mL
- half-life ([4]; male, KM, mouse, plasma, ip, 1 mg/kg, IP 1 mg/kg, cassette, summary table, read-out: T1/2 (converted)): 9.34 h
- Tmax ([4]; male, KM, mouse, plasma, ip, 1 mg/kg, IP 1 mg/kg, cassette, summary table, read-out: Tmax): 0.646 h
- AUC(0-inf) ([4]; male, KM, mouse, plasma, iv, 1 mg/kg, IV 1 mg/kg, cassette, mean of animals, read-out: AUC(0-∞)): 425 ng·h/mL
- Cmax ([4]; male, KM, mouse, plasma, iv, 1 mg/kg, IV 1 mg/kg, cassette, mean of animals, read-out: Cmax): 320 ng/mL
- Tmax ([4]; male, KM, mouse, plasma, iv, 1 mg/kg, IV 1 mg/kg, cassette, mean of animals, read-out: Tmax): 0.033 h
- Cmax ([4]; male, KM, mouse, plasma, iv, 1 mg/kg, IV 1 mg/kg, cassette, summary table, read-out: Cmax): 320 ng/mL
- half-life ([4]; male, KM, mouse, plasma, iv, 1 mg/kg, IV 1 mg/kg, cassette, summary table, read-out: T1/2 (converted)): 8.05 h
- Tmax ([4]; male, KM, mouse, plasma, iv, 1 mg/kg, IV 1 mg/kg, cassette, summary table, read-out: Tmax): 0.033 h
- AUC(0-inf) ([4]; male, KM, mouse, plasma, po, 5 mg/kg, 5 mg/kg PO, cassette dosing, read-out: AUC0-inf): 1540 ng·h/mL
- Cmax ([4]; male, KM, mouse, plasma, po, 5 mg/kg, 5 mg/kg PO, cassette dosing, read-out: Cmax (Mouse, P.O.)): 43.1 ng/mL
- half-life ([4]; male, KM, mouse, plasma, po, 5 mg/kg, 5 mg/kg PO, cassette dosing, read-out: T1/2 (Mouse, P.O.) (converted)): 35.7 h
- Tmax ([4]; male, KM, mouse, plasma, po, 5 mg/kg, 5 mg/kg PO, cassette dosing, read-out: Tmax (Mouse, P.O.)): 6 h
- AUC(0-inf) ([4]; male, KM, mouse, plasma, po, 5 mg/kg, PO 5 mg/kg, cassette, mean of animals, read-out: AUC(0-∞)): 1540 ng·h/mL
- Cmax ([4]; male, KM, mouse, plasma, po, 5 mg/kg, PO 5 mg/kg, cassette, mean of animals, read-out: Cmax): 43.1 ng/mL
- Tmax ([4]; male, KM, mouse, plasma, po, 5 mg/kg, PO 5 mg/kg, cassette, mean of animals, read-out: Tmax): 6 h
- Cmax ([4]; male, KM, mouse, plasma, po, 5 mg/kg, PO 5 mg/kg, cassette, summary table, read-out: Cmax): 43.1 ng/mL
- half-life ([4]; male, KM, mouse, plasma, po, 5 mg/kg, PO 5 mg/kg, cassette, summary table, read-out: T1/2 (converted)): 35.7 h
- Tmax ([4]; male, KM, mouse, plasma, po, 5 mg/kg, PO 5 mg/kg, cassette, summary table, read-out: Tmax): 6 h
- concentration at 0.083 h [4, 9]: 27 ng/mL and 60 nM
- concentration at 0.25 h [4, 9]: 70 nM and 29.8 ng/mL
- concentration at 0.5 h [4, 9]: 80 nM and 36.3 ng/mL
- concentration at 1 h [4, 9]: 90 nM and 39.8 ng/mL
- concentration at 3 h [4, 9]: 80 nM and 33.4 ng/mL
- concentration at 5 h [4, 9]: 50 nM and 21.3 ng/mL
- concentration at 8 h [4, 9]: 40 nM and 15.4 ng/mL
- concentration at 24 h [4, 9]: 10 nM and 5.44 ng/mL
- AUC(0-t) [4, 10]: 388 ng·h/mL
- MRT last [4, 10]: 7.13 h
- MRT inf [4, 10]: 12.3 h
- Vd/F [4, 10]: 28.9 L/kg
- concentration at 0.033 h ([4]; male, KM, mouse, plasma, IV 1 mg/kg, cassette, 0.033 h): 320 ng/mL and 740 nM
- concentration at 0.167 h ([4]; male, KM, mouse, plasma, IV 1 mg/kg, cassette, 0.167 h): 330 nM and 145 ng/mL
- concentration at 0.5 h [4, 11]: 170 nM and 75.2 ng/mL
- concentration at 1 h [4, 11]: 120 nM and 50.1 ng/mL
- concentration at 3 h [4, 11]: 60 nM and 25.4 ng/mL
- concentration at 5 h [4, 11]: 40 nM and 16.1 ng/mL
- concentration at 8 h [4, 11]: 20 nM and 10.3 ng/mL
- concentration at 24 h [4, 11]: 10 nM and 5.2 ng/mL
- C0 [4, 12]: 392 ng/mL
- AUC(0-t) [4, 12]: 392 ng·h/mL
- MRT last [4, 12]: 5.5 h
- MRT inf [4, 12]: 8.24 h
- concentration at 0.083 h [4, 13]: 7.08 ng/mL and 20 nM
- concentration at 0.25 h [4, 13]: 30 nM and 11.3 ng/mL
- concentration at 0.5 h [4, 13]: 50 nM and 20.4 ng/mL
- concentration at 1 h [4, 13]: 70 nM and 32.5 ng/mL
- concentration at 3 h [4, 13]: 90 nM and 39.1 ng/mL
- concentration at 5 h [4, 13]: 90 nM and 37.6 ng/mL
- concentration at 8 h [4, 13]: 90 nM and 40.2 ng/mL
- concentration at 24 h [4, 13]: 60 nM and 24.3 ng/mL
- AUC(0-t) [4, 14]: 621 ng·h/mL
- MRT last [4, 14]: 8.45 h
- MRT inf [4, 14]: 38.7 h
- Vd/F [4, 14]: 129 L/kg
- C. glutamicum MIC [5]: 12 µM
